Biological target: hTET2 (Homo sapiens, UniProt Q6N021)
Assay: MALDI-based inhibition assay of hTET2
Details: for hTET2 inhibition, result in words: additional SAR / re-synthesis

Compound	IC50 [µM]	hTET2 inhibition, result in words
Oc1cc2c(cc1O)CNCC2 [Compound 21, tetrahydroisoquinoline-6,7-diol]	8.6	micromolar IC50 values
CC(C)OS(=O)(=O)c1ccc(F)c2ncc(I)cc12 [Compound 5]	> 200	
CCCCCOS(=O)(=O)c1ccc(F)c2ncc(I)cc12 [Compound 6]	> 200	
O=S(=O)(O)c1ccc(O)c2ncccc12 [Compound 18]	12.1 ± 4.2	
O=C(O)c1ncccc1O [Compound 22, 3-hydroxypicolinic acid]	48.6	micromolar IC50 values
O=C(O)c1ccc(F)c2ncccc12 [Compound 19]	> 200	inactivity

More lines, main results first:

IC50 [µM]	Compound	hTET2 inhibition, result in words
> 200	CNS(=O)(=O)c1ccc(F)c2ncc(I)cc12 [Compound 9]	
> 200	O=S(=O)(Nc1cccc(O)c1)c1ccc(F)c2ncc(I)cc12 [Compound 16]	
> 200	O=S(=O)(c1ccc(F)c2ncc(I)cc12)N1CCCC1 [Compound 10]	
> 200	O=S(=O)(Nc1ccccc1)c1ccc(F)c2ncc(I)cc12 [Compound 11]	
> 200	O=S(=O)(NCCc1ccccc1)c1ccc(F)c2ncc(I)cc12 [Compound 14]	
> 200	O=S(=O)(NCc1ccccc1)c1ccc(F)c2ncc(I)cc12 [Compound 13]	
> 200	NS(=O)(=O)c1ccc(F)c2ncc(I)cc12 [Compound 8]	
